Results as given in US11168283B2, “Malodor counteracting ingredients” (Firmenich SA, priority 2017, dated 2021).

Biological target: T1, butyric acid olfactory receptor OR51E1 (Homo sapiens, UniProt Q8TCB6)
T1 construct: expressed in transfected cells
T1 sequence (Q8TCB6 1-318): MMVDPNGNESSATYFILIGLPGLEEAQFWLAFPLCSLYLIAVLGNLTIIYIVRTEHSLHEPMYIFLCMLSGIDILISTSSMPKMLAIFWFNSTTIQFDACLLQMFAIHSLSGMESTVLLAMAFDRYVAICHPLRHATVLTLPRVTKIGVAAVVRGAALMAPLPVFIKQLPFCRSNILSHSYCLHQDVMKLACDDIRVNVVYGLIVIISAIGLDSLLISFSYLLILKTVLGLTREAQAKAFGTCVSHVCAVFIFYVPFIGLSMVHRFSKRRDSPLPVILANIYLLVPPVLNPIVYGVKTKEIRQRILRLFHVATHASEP
Assay: Inhibitory dose-response assay in a cell line expressing the OR51E1 olfactory receptor, in the presence of butyric acid (EC87)
Assay type: cell-based
Details: maximum % inhibition of butyric acid (EC87) induced OR51E1 activity, normalized to baseline agonist activity

| Structure (SMILES) | Inhibition (%) |
| --- | --- |
| CC(=NO)C1C(C)C(C)[C@@]23CC[C@H](CC12)C3 (some centres unmarked) [~{N}-[1[(1~{S},7~{R})-2,3-dimethyl-4-tricyclo[5.2.1.0^1,5]decanyl]ethylidene]hydroxylamine] | 19 |
| CC1CC(C)(C=NO)C2C[C@H]3CC[C@]12C3 (some centres unmarked) [~{N}-[[(1~{S},7~{R})-2,4-dimethyl-4-tricyclo[5.2.1.0^1,5]decanyl]methylidene]hydroxylamine] | 38 |
